Reference: PMC4502315, “High Potency of a Novel Resveratrol Derivative, 3,3′,4,4′-Tetrahydroxy-trans-stilbene, against Ovarian Cancer Is Associated with an Oxidative Stress-Mediated Imbalance between DNA Damage Accumulation and Repair” (Oxidative Medicine and Cellular Longevity, 2015)

Tests used:
Format in all cases: cell-based, human
[1] = test system: A2780 cells; experiment: Oxidative DNA damage (8-OH-dG immunoassay), A2780; conditions: 24 h, 10, 50, 100 μM tested
Experimental: (§1) Oxidative DNA damage was assessed by measuring the 8-OH-dG concentration with a competitive immunoassay (Cell Biolabs Inc.), as per manufacturer's instructions. The efficiency of 8-OH-dG repair was estimated after cell recovery for 24 h in standard growth medium. In order to examine the activity of DNA glycosylase I, reverse transcription PCR was performed. RNA extraction was carried out using the RNA Bee (Tel-Test, Friendswood, Texas, USA) and purified according to the manufacturer's protocol. One microgram of RNA was reverse transcribed into cDNA with random hexamer primers, and cDNA was subjected to PCR. The profile of the replication cycles was denaturation at 94°C for 50 s, annealing at 58°C for 50 s, and polymerization at 72°C for 1 min. In each reaction, the expression of glyceraldehyde-3-phosphate dehydrogenase (GAPDH) served as the internal control. The primers used for PCR were as follows: hOGG1 forward, 5′-[…]-3′; hOGG1 reverse, 5′-TAGCCCGCCCTGTTCTTC-3′ designed to amplify a 551-bp region; GAPDH forward, 5′-CCATGGAGAAGGCTGGGG-3′; and GAPDH reverse 5′-[…]-3′ designed to amplify a 194-bp region (total number of cycles: 28). The PCR products were separated on 3% agarose gels stained with ethidium bromide and then visualized.

[2] = test system: SKOV-3 cells; experiment: Cell proliferation (CFDA SE), SKOV-3; conditions: low-density cultures, 24 h, 10, 50, 100 μM tested
Experimental: (§2) Cell proliferative potential was determined using Cell Proliferation Kit I (PromoKine, Heidelberg, Germany) according to the manufacturer's instructions. In brief, cells were probed for 15 min with 5-(and 6)-carboxyfluorescein diacetate, a succinimidyl ester (CFDA SE; 2 μM) which diffuses into cells, covalently binds to proteins, and becomes fluorescent upon its hydrolysis by intracellular esterases. The fluorescence emitted by the cells (the dye is inherited by the daughter cells through successive divisions) was recorded using a Victor2 spectrofluorometer (Perkin-Elmer, Turku, Finland) with excitation at 435 nm and emission at 535 nm.

[3] = test system: OVCAR-3 cells; experiment: SA-β-Gal activity (senescence), OVCAR-3; conditions: 24 h, 10, 50, 100 μM tested
Experimental: (§3) The activity of SA-β-Gal in the cell extracts was quantified by measuring the rate of conversion of 4-methylumbelliferyl-β-D-galactopyranoside to 4-methylumbelliferone, as described in [19]. In order to visualize expression of the enzyme in the cancer cell cytoplasm, cytochemical staining for SA-β-Gal was performed according to Dimri et al..

[4] = test system: HPMCs; experiment: LDH release assay, HPMCs; conditions: Homo sapiens, 24 h, CalcuSyn
[5] = test system: HOSE cells; experiment: Oxidative DNA damage (8-OH-dG immunoassay), HOSE cells; conditions: 24 h, percentage of control cells
Experimental: as §1

[6] = test system: p38 MAPK; experiment: p38 MAPK activation (FACE ELISA), HOSE cells; conditions: 24 h, percentage of control cells
Experimental: (§4) Activation of p38 MAPK was examined using the Fast Activated Cell-Based ELISA (FACE) p38 kit (Active Motif) according to the manufacturer's instructions. In brief, cells were fixed with 4% formaldehyde and incubated with a primary antibody that recognizes either phosphorylated p38 or total p38 overnight at 4°C. Then the cells were washed and incubated with a secondary HRP-conjugated antibody for 1 h at room temperature. The color reaction that developed was read using a spectrofluorometer at 450 nm wavelength.
(§5) The results were expressed as a ratio of phosphorylated to total p38 activity.

[7] = test system: catalase (CAT); experiment: CAT activity, HPMCs; conditions: 24 h, percentage of control cells
Experimental: (§6) Total activity of superoxide dismutase (SOD) was measured in cell lysates with a commercially available kit (R&D Systems Europe, Abingdon, UK), while the activity of catalase (CAT) was estimated by using the OxiSelect Catalase Activity Assay Kit (Cell Biolabs Inc., San Diego, CA, USA). Both assays were performed according to the manufacturer's instructions.

[8] = test system: caspase-8; experiment: Caspase-8 activity in ovarian cancer cell lysates; conditions: ovarian cancer cells (A2780, OVCAR-3, SKOV-3); 24 h
Experimental: (§7) Identification of apoptosis was based on the presence of DNA condensation in cells stained with a fluorescent dye, Hoechst 33258 (Molecular Probes, Eugene, OR). Cells were grown on Lab-Tek Chamber Slides (Nunc, Roskilde, Denmark), fixed with 4% formaldehyde for 10 min and washed twice with PBS. Then the cells were incubated with Hoechst 33258 (0.1 μg/mL) for 5 min in the dark. After washing with PBS, stained nuclei were observed and counted under a Zeiss Axio Observer D1 fluorescence microscope (Carl Zeiss, Jena, Germany). The activity of caspases 3, 8, and 9 was quantified in the cell lysates using specific colorimetric kits (Abcam, Cambridge, UK) according to the manufacturer's instructions.

[9] = test system: HOSE cells; experiment: Apoptosis (Hoechst 33258), HOSE cells; conditions: 24 h, percentage of control cells
Experimental: as §7

[10] = test system: A2780 cells; experiment: ROS production (H2DCFDA), A2780; conditions: 24 h, 10, 50, 100 μM tested
Experimental: (§8) ROS production was assessed in cells probed with a fluorescent dye, 2′,7′-dichlorodihydrofluorescein diacetate (H2DCFDA; 5 μM) (Molecular Probes, Eugene, USA) for 45 min at 37°C. Fluorescence intensity in cell lysates was monitored in a Victor2 spectrofluorometer with excitation at 485 nm and emission at 535 nm.

[11] = test system: OVCAR-3 cells; experiment: ROS production (H2DCFDA), OVCAR-3; conditions: 24 h, 10, 50, 100 μM tested
Experimental: as §8

[12] = test system: caspase-3; experiment: Caspase-3 activity in ovarian cancer cell lysates; conditions: ovarian cancer cells (A2780, OVCAR-3, SKOV-3); 24 h
Experimental: as §7

[13] = test system: superoxide dismutase (SOD); experiment: SOD activity in cell lysates, HOSE cells; conditions: 24 h, percentage of control cells
Experimental: as §6

[14] = test system: p38 MAPK; experiment: p38 MAPK activation (FACE ELISA), A2780; conditions: 24 h, 10, 50, 100 μM tested
Experimental: as §4, §5

[15] = test system: HPMCs; experiment: SA-β-Gal activity (senescence), HPMCs; conditions: 24 h, percentage of control cells
Experimental: as §3

[16] = test system: OVCAR-3 cells; experiment: Cell proliferation (CFDA SE), OVCAR-3; conditions: low-density cultures, 24 h, 10, 50, 100 μM tested
Experimental: as §2

[17] = test system: OVCAR-3 cells; experiment: Oxidative DNA damage (8-OH-dG immunoassay), OVCAR-3; conditions: 24 h, 10, 50, 100 μM tested
Experimental: as §1

[18] = test system: superoxide dismutase (SOD); experiment: SOD activity in cell lysates, HPMCs; conditions: 24 h, percentage of control cells
Experimental: as §6

[19] = test system: A2780 cells; experiment: Cell proliferation (CFDA SE), A2780; conditions: low-density cultures, 24 h, 10, 50, 100 μM tested
Experimental: as §2

With `Oc1ccc(/C=C/c2ccc(O)c(O)c2)cc1O` [3,3′,4,4′-THS, 3,3′,4,4′-tetrahydroxy-trans-stilbene] the “concentration of 8-OH-dG (oxidative DNA damage), effect in words” value (from here on “concentration of 8-OH-dG”) [1] was “only concentrations of 50 and 100 μM were effective”, the “proliferation, effect in words” value [2] was “evident at as low a concentration as 10 μM” and the “SA-β-Gal activity (senescence), effect in words” value [3] was “significantly greater than those of RVT at each concentration”. The IC50 [4] was 498 µM, the 8-OH-dG ([5]; 10 μM) was 103 ± 3% and the 8-OH-dG ([5]; 50 μM) was 76 ± 3^∗# %. The 8-OH-dG ([5]; 100 μM) was 71 ± 2^∗# %, the “p38 MAPK” value ([6]; 10 μM) was 106 ± 5% and the “p38 MAPK” value ([6]; 50 μM) was 104 ± 4%. The “p38 MAPK” value ([6]; 100 μM) was 100 ± 3%, the CAT ([7]; 10 μM) was 112 ± 2^∗# % and the CAT ([7]; 50 μM) was 123 ± 4^∗# %. The CAT ([7]; 100 μM) was 154 ± 1^∗# %, the “caspase-8 activation, effect in words” value [8] was “lack of activation of caspase-8” and the Apoptosis ([9]; 10 μM) was 101 ± 1%. For the same molecule, the Apoptosis ([9]; 50 μM) was 100 ± 2%, the Apoptosis ([9]; 100 μM) was 102 ± 2% and the “generation of ROS, effect in words” value [10] was “markedly upregulated the generation of ROS”. For the same molecule, the “generation of ROS, effect in words” value [11] was “remarkably stronger”, the “caspase-3 activity, effect in words” value [12] was “increased the activity of the same caspases as RVT did” and the SOD ([13]; 10 μM) was 122 ± 1^∗# %. For the same molecule, the SOD ([13]; 50 μM) was 141 ± 5^∗# %, the SOD ([13]; 100 μM) was 136 ± 2^∗# % and the “p38 MAPK activity (phosphorylated/total), effect in words” value [14] was “elicited its stimulatory activity at 50 and 100 μM”. The SA-β-Gal ([15]; 10 μM) was 76 ± 3^∗# %, the SA-β-Gal ([15]; 50 μM) was 104 ± 4% and the SA-β-Gal ([15]; 100 μM) was 99 ± 3%. For the same molecule, the “proliferation, effect in words” value [16] was “evident at as low a concentration as 10 μM”, the “concentration of 8-OH-dG” value [17] was “increasing the concentration of 8-OH-dG in the OVCAR-3 and SKOV-3 cells starting from a dose of 10 μM” and the SOD ([18]; 10 μM) was 122 ± 4^∗# %. The SOD ([18]; 50 μM) was 141 ± 3^∗# %, the SOD ([18]; 100 μM) was 136 ± 4^∗# % and the “proliferation, effect in words” value [19] was “evident at as low a concentration as 10 μM”.
For `Oc1ccc(/C=C/c2cc(O)cc(O)c2)cc1` [RVT, 3,4′,5-trihydroxy-trans-stilbene, reference compound], the “concentration of 8-OH-dG” value [1] was “induced DNA injury in A2780 and SKOV-3 at 50 and 100 μM”, the “proliferation, effect in words” value [2] was “such a low dose was effective in SKOV-3 cultures only” and the “SA-β-Gal activity (senescence), effect in words” value [3] was “cellular senescence was elicited”. For the same molecule, the IC50 [4] was 495 µM, the 8-OH-dG ([5]; 10 μM) was 103 ± 5% and the 8-OH-dG ([5]; 50 μM) was 102 ± 5%. The 8-OH-dG ([5]; 100 μM) was 82 ± 4^∗ %, the “p38 MAPK” value ([6]; 10 μM) was 103 ± 5% and the “p38 MAPK” value ([6]; 50 μM) was 107 ± 10%. The “p38 MAPK” value ([6]; 100 μM) was 108 ± 11%, the CAT ([7]; 10 μM) was 101 ± 1% and the CAT ([7]; 50 μM) was 103 ± 4%. For the same molecule, the CAT ([7]; 100 μM) was 118 ± 3^∗ %, the “caspase-8 activation, effect in words” value [8] was “no effect” and the Apoptosis ([9]; 10 μM) was 99 ± 2%. The Apoptosis ([9]; 50 μM) was 101 ± 2%, the Apoptosis ([9]; 100 μM) was 102 ± 3% and the “generation of ROS, effect in words” value [10] was “(at 50 and 100 μM) inhibited the production of ROS”. The “generation of ROS, effect in words” value [11] was “stimulated the release of ROS”, the “caspase-3 activity, effect in words” value [12] was “activated caspases 9 and 3, and this activity was evident at 50 and 100 μM” and the SOD ([13]; 10 μM) was 111 ± 3^∗ %. The SOD ([13]; 50 μM) was 112 ± 3^∗ %, the SOD ([13]; 100 μM) was 121 ± 4^∗ % and the “p38 MAPK activity (phosphorylated/total), effect in words” value [14] was “increased the activity of p38 MAPK at 100 μM”. The SA-β-Gal ([15]; 10 μM) was 100 ± 2%, the SA-β-Gal ([15]; 50 μM) was 102 ± 4% and the SA-β-Gal ([15]; 100 μM) was 100 ± 1%. The “proliferation, effect in words” value [16] was “effectively reduced the expandability”, the “concentration of 8-OH-dG” value [17] was “evident only at 100 μM” and the SOD ([18]; 10 μM) was 110 ± 2^∗ %. The SOD ([18]; 50 μM) was 112 ± 3^∗ %, the SOD ([18]; 100 μM) was 113 ± 2^∗ % and the “proliferation, effect in words” value [19] was “effectively reduced the expandability”.
